From patent publication US20090203901A1, “Process for preparing pyrazole functionalized benzodiazepinones” (Roche Colorado Corporation, priority 2008, published 2009)

Columns and labels:
[1] = system: tumor growth and metastasis; conditions: cited from earlier work
[2] = system: vascular endothelial cell proliferation; conditions: endothelial versus tumor cell proliferation; cited from earlier work

| melting point [°C] | Structure (SMILES) | tumor growth and metastasis in vivo [1] | half-maximal inhibition of vascular endothelial cell proliferation at lower concentration than tumor cell proliferation [2] [logs] |
| --- | --- | --- | --- |
| 130.5 to 132.5 | COc1cc(N)c(C(=O)c2ccccc2Cl)cc1F [Example 3a, 2-Amino-2′-chloro-5-fluoro-4-methoxybenzophenone] | – | – |
| 210 to 212.5 | COc1cc2c(cc1F)C(c1ccccc1Cl)=NCC(=O)N2 | – | – |
| 125 to 127 | C=CCNc1cc(OC)c(F)cc1C(=O)c1ccccc1Cl [Example 9, 2-(Allylamino)-2′chloro-5-fluoro-4-methoxybenzophenone] | – | – |
| 122 to 124 | COc1cc(NCc2ccccc2)c(C(=O)c2ccccc2Cl)cc1F [Example 2, 2-(Benzylamino)-2′-chloro-5-fluoro-4-methoxybenzophenone] | – | – |
| 84 to 85 | COc1cc(F)c(C(=O)c2ccccc2Cl)cc1F [Example 1, 2′-Chloro-2,5-difluoro-4-methoxybenzophenone] | – | – |
| – | CO[C@@H]1[C@H](OC(=O)NC(=O)CCl)CC[C@]2(CO2)[C@H]1[C@@]1(C)O[C@@H]1CC=C(C)C [AGM-1470] | inhibits tumor growth and metastasis in vivo | 4 |
| 177 to 178 | COc1cc(NC(=O)CBr)c(C(=O)c2ccccc2Cl)cc1F | – | – |
